US11026972B2, “Methods for generating macrophages with enhanced cancer phagocytosis” (Georgia State University Research Foundation, Inc., priority 2016, dated 2021)
Blank lines part the entries; values can stand above or below the molecule they belong to.

Key:
[1] = tested on: PEMs; test: Activated PEM phagocytosis toward RBCs in the presence of antibodies/inhibitors against phagocytic receptors; type: cell-based, mouse; conditions: antibodies 10 μg/mL; BLT1 5 μM; laminarin 100 μg/mL; heparin 40 U/mL
Procedure: FIGS. 6A-6D include data related to our investigation of possible phagocytic receptors on macrophages for phagocytosing healthy self-cells. […] PEMs, with or without (ctl.) treatment with LPS, IL-17, IL-6, or PMA, were labeled for cell surface LRP1 and CRT followed by FACS. […] Activated PEM phagocytosis toward RBCs was tested in the presence of antibodies against SR-A, Fc receptor Cd16/32 (10 μg/mL of each), inhibitors against SR-B (BLT1, 5 μM), dectin (laminarin, 100 μg/mL), complement (heparin, 40 U/mL), and antibody against Cd11b (10 μg/mL). […] Data presented in each panel represent at least three independent experiments with n≥4, if applicable.
Ex vivo macrophage phagocytosis: Mouse spleens were harvested and minced in cold HBSS followed by passing through nylon meshes. The spleen cells in suspensions were collected by centrifugation followed by washing. After lysis of RBC, splenocytes were plated in cell culture dishes in DMEM with 10% FBS and cultured for 2 h followed by removal of non-adherent cells. The adherent cells, ˜70% being macrophages as determined by anti-F4/80 staining, were tested for phagocytosis. For phagocytosis of RBC or other tissue cells, targeted cells were labeled with CFSE prior to addition into the macrophage-containing wells. Macrophages and target cells, at a ratio of 1:5-10 for RBC or 1:1-2 for other cells, were co-incubated for 30 min at 37° C. followed by gently washing. Macrophage phagocytosis of target cells was then analyzed by fluorescence microscopy and/or by FACS. […] Alternatively, the freshly isolated splenocytes in suspension were incubated with CFSE-labeled RBC and other phagocytic targets for 30 min at 37° C. Macrophage phagocytosis was then determined by FACS after labeling macrophages with anti-F4/80. To test phagocytosis of apoptotic cells, B16 cells were irradiated by UV for 150 seconds at 50 J/m^2 strength. Apoptosis was analyzed at 2, 4, 6, 8 and 18 h post UV irradiation by labeling of the cells with anti-phosphatidylserine (PS) antibody (data not shown) or FITC-conjugated annexin V (data not shown). Cells that were confirmed to be apoptotic were trypsinized, labeled with CFSE, and then co-incubated with macrophages for 30 min at 37° C. After gentle washing, phagocytosis was analyzed by fluorescence microscopy and/or FACS. To test phagocytosis of bacteria and the fungal product zymosan, AlexaFluor-conjugated E.coli strain […] (2 μl suspension, ˜2 μg) or zymosan bioparticles (1 μl suspension, ˜2 μg) (both from Invitrogen) were incubated with macrophages for 30 min followed by washing and analyses. Similar procedures were performed to test phagocytosis of macrophages from various sources. […]

[2] = tested on: splenic macrophages, PEMs and BMDMs; test: Ex vivo macrophage phagocytosis toward RBCs and other self-cells after activation; type: cell-based, mouse; conditions: PEM; lack of the CD47-SIRPα-mediated inhibition
Procedure: FIGS. 3A-3H include data related to our experiments assaying macrophage phagocytosis ex vivo. FIGS. 3A and 3B show macrophage phagocytosis of RBCs. Freshly isolated splenic macrophages (MØ) and peritoneal macrophages (PEM) and in vitro-derived BMDM (bone marrow-derived macrophages) were tested for phagocytosis toward CFSE-labeled Cd47^+ or Cd47^− RBCs. […] FIGS. 3F and 3G illustrate LPS and IL-17-activated PEM phagocytosis toward splenocytes (FIG. 3F), B16, and EL4 (FIG. 3G). Error bars are ±SEM. **P<0.01, ***P<0.001 vs. no treatment controls. […] PEM lavaged without (ctl.) or with Brewer thioglycollate (3%, i.p.) elicitation was tested. Error bars are ±SEM. ***P<0.001 vs. control PEM. Data presented in each panel represent at least three independent experiments with n≥4, if applicable.
FIGS. 4A-4E include data related to our experiments on macrophage phagocytic plasticity. FIG. 4A is a panel of illustrative line graphs showing that IL-10 inhibits macrophage phagocytosis toward “self.” PEMs were treated with LPS and activating cytokines along with various concentrations of IL-10 before testing their ability to phagocytose RBCs. FIG. 4B illustrates the phagocytic plasticity of WT red pulp macrophages. […] Treatments of cultured macrophages with LPS and IL-17 re-elicited their phagocytosis toward RBCs. […] Error bars are ±SEM. ***P<0.001 vs. freshly isolated splenic macrophages. FIG. 4D includes microscopic images of RBC phagocytosis by LPS- and IL-17-treated splenic macrophages. […] WT PEMs treated with LPS or IL-17 were further treated with Cd47^+ RBCs or Cd47-AP (10 min, 37° C.) followed by cell lysis, SIRPα immunoprecipitation, and WB detection of SIRPα phosphorylation (SIRPα^pY) and SHP-1 association. Data presented in each panel represent at least three independent experiments with n≥4, if applicable.
Ex vivo macrophage phagocytosis: Mouse spleens were harvested and minced in cold HBSS followed by passing through nylon meshes. The spleen cells in suspensions were collected by centrifugation followed by washing. After lysis of RBC, splenocytes were plated in cell culture dishes in DMEM with 10% FBS and cultured for 2 h followed by removal of non-adherent cells. The adherent cells, ˜70% being macrophages as determined by anti-F4/80 staining, were tested for phagocytosis. For phagocytosis of RBC or other tissue cells, targeted cells were labeled with CFSE prior to addition into the macrophage-containing wells. Macrophages and target cells, at a ratio of 1:5-10 for RBC or 1:1-2 for other cells, were co-incubated for 30 min at 37° C. followed by gently washing. Macrophage phagocytosis of target cells was then analyzed by fluorescence microscopy and/or by FACS. To better recognize macrophages, macrophages in wells were labeled with an anti-F4/80 or an anti-CD11b antibody. Alternatively, the freshly isolated splenocytes in suspension were incubated with CFSE-labeled RBC and other phagocytic targets for 30 min at 37° C. Macrophage phagocytosis was then determined by FACS after labeling macrophages with anti-F4/80. To test phagocytosis of apoptotic cells, B16 cells were irradiated by UV for 150 seconds at 50 J/m^2 strength. Apoptosis was analyzed at 2, 4, 6, 8 and 18 h post UV irradiation by labeling of the cells with anti-phosphatidylserine (PS) antibody (data not shown) or FITC-conjugated annexin V (data not shown). Cells that were confirmed to be apoptotic were trypsinized, labeled with CFSE, and then co-incubated with macrophages for 30 min at 37° C. After gentle washing, phagocytosis was analyzed by fluorescence microscopy and/or FACS. To test phagocytosis of bacteria and the fungal product zymosan, AlexaFluor-conjugated E.coli strain […] (2 μl suspension, ˜2 μg) or zymosan bioparticles (1 μl suspension, ˜2 μg) (both from Invitrogen) were incubated with macrophages for 30 min followed by washing and analyses. Similar procedures were performed to test phagocytosis of macrophages from various sources. […]

[3] = tested on: SIRPα^−/− and CD47^−/− mice; test: Acute anemia and splenomegaly in mice deficient of CD47-SIRPα-mediated inhibition under inflammatory conditions; type: in vivo, mouse; conditions: SIRPα^−/− and CD47^−/− mice; zymosan 3 times every other day; IL-6 2×10 μg/kg i.v.; LPS 0.25 mg/kg i.p.; CFA s.c.
Description: FIGS. 1A-1K illustrate our assessment of acute anemia in mice deficient of CD47-SIRPα-mediated inhibition under inflammatory conditions. FIG. 1A includes a schematic drawing of a wild type (WT) and targeted allele of SIRPα (“SIRPα”) and data related to the generation of SIRPα “knock out” (KO) mice. […] Western blot (WB) analysis confirmed the depletion of SIRPα (˜120 kDa) protein in bone marrow leukocytes from SIRPα^−/− mice. FIG. 1B includes a photograph of intestinal tissue and a line graph charting the change in body weight of mice in which colitis had been induced by treatment with 1% or 2% DSS. […] FIGS. 1C and 1D include data related to acute anemia and splenomegaly developed in SIRPα^−/− mice with colitis. WT mice and SIRPα^−/− mice treated with DSS (2% DSS for WT and 1% DSS for SIRPα^−/−) for 10 days were analyzed for the presence of […] (FIG. 1C) and the content of hemoglobin in peripheral blood (FIG. 1D). FIG. 1E includes a panel of photomicrographs in which hematoxylin and eosin (H&E) was used to stain sections of spleens from WT and SIRPα^−/− mice treated with 2% and 1% DSS for 10 days. The bar graph of FIG. 1E illustrates the hemoglobin content in the spleens of WT and SIRPα^−/− mice treated with water or DSS. FIG. 1F is a pair of line graphs showing the time course over which anemia developed in SIRPα^−/− mice when colitis was induced with DSS and the levels of IL-17 in the serum over that same period of time. FIG. 1G is a diagram showing that IL-17 neutralization ameliorates anemia and splenomegaly in SIRPα^−/− mice with colitis. An anti-IL-17 antibody (10 μg, i.v.) was given on days 6 and 8 (arrows) during DSS-induction of colitis. FIG. 1H is a diagram showing that IL-17-containing colitic serum induces acute anemia in SIRPα^−/− mice. Serum samples collected from healthy (Ctl.) and colitic WT mice (2% DSS, 10 d) were administered to healthy SIRPα^−/− mice (i.v., 3×, arrows) with or without an anti-IL-17 antibody. FIGS. 1I and 1J are illustrative graphs showing that IL-17 directly induces acute anemia and splenomegaly in SIRPα^−/− mice and Cd47^−/− mice. Healthy mice were given recombinant IL-17 (10 μg/kg, i.v.) on days 1 and 3 (arrows, FIG. 1J); anemia and splenomegaly were analyzed on day 5 (FIG. 1I) or in a time course manner (FIG. 1J). FIG. 1K includes diagrams showing that acute anemia and splenomegaly in SIRPα^−/− and Cd47^−/− mice under zymosan-peritonitis (3×, every other day), IL-6 administration ([…], i.v.), LPS (0.25 mg/kg, i.p.), and CFA (1×, s.c.) administrations. Error bars are ±SEM **P<0.01, ***P<0.001 vs. control or the beginning time point. Data presented in each panel represent at least three independent experiments with n≥4, if applicable.
Hemoglobin assay: To assay blood hemoglobin, 10 μl of whole blood were obtained from the tail vein followed by lysis in 1 ml distilled water. After centrifugation (13,000 rpm, 30 min), the hemoglobin-containing supernatants were collected and measured for the optical density at the wavelength of 540 nm.
Animal inflammation models: To induce peritonitis, mice (6-8 wk, 20-22 g) were intraperitoneally injected with 0.5 mg zymosan A (Sigma) in 0.5 ml sterile PBS followed by euthanasia at 2, 4, 6 and 8 hours. […] The colitic condition was then assessed by observing diarrhea, measuring body weight loss, increases of inflammatory cytokines, the shortage of the large intestine and intestinal tissue analyses (after euthanasia). […]

LPS-induced PEM phagocytosis toward RBCs [1]: failed to affect
Molecule: CCCCCCC1CCCC1=NNC(N)=S (centres unmarked) [BLT1]

LPS-induced PEM phagocytosis toward RBCs [1]: failed to affect
Molecule: heparin

LPS-induced PEM phagocytosis toward RBCs [1]: failed to affect
Molecule: laminarin

B1: IL-6: recombinant murine cytokine, PeproTech (protein, UniProt P08505 25-211, looked up)
Interleukin-6: FPTSQVRRGDFTEDTTPNRPVYTTSQVGGLITHVLWEIVEMRKELCNGNSDCMNNDDALAENNLKLPEIQRNDGCYQTGYNQEICLLKISSGLLEYHSYLEYMKNNLKDNKKDKARVLQRDTETLIHIFNQEVKDLHKIVLPTPISNALLTDKLESQKEWLRTKTIQFILKSLEEFLKVTLRSTRQT
ability to induce macrophage phagocytosis toward self [2]: have the ability to induce macrophage phagocytosis toward self
anemia and splenomegaly [3]: induced the same result
